Assay results published in patent publication US20230137092A1, “Composition and Method for the Treatment and Prevention of Cardiac, Pulmonary, Dermal, and Renal Fibrosis” (EMERALD HEALTH PHARMACEUTICALS INC., priority 2020, published 2023).

Key:
Type in all cases: in vivo, mouse
[1] = Weight and behaviour observation during the therapeutic Ang II protocol; conditions: 20 mg/kg daily oral gavage
Procedure: (§1) For the therapeutic model, infusion of Ang II for four weeks and the compound of Formula (VIII) (20 mg/kg) was administrated after two weeks of pump implantation. Subcutaneous infusion of Ang II using ALZET osmotic minipumps was used to study the preventive effects of the compound ALZET® osmotic minipumps (Model #2004, Charles Rives, Barcelona, Spain) delivering of Ang II (500 ng kg^−1 min^−1) (Sigma-Aldrich, Madrid, Spain) for four weeks. Compound treatment was daily administered in parallel, two weeks after the implantation of the subcutaneous pump, beneath the midscapular loose skin and consisted of daily oral gavage of compound of Formula (VIII) (20 mg/kg) or vehicle (Corn Oil/Maisine CC, 1/1). Mice were acclimated to manipulators for a week previously to the experiments in order to reduce stress and allow the detection of subtle changes in behavior by researchers. […] Neither piloerection nor hunched appearances were appreciated during the experimental procedures. Mice were sacrificed by cervical dislocation and the heart, aorta, kidney, and lung were removed and processed for histological examination or were frozen for further analysis.

[2] = system: Ang II-induced aortic fibrosis; test: Ang II therapeutic model: aorta adventitial collagen, Sirius red; conditions: Ang II four weeks, 20 mg/kg oral last two weeks, ###p<0.001 versus Ang II group
Procedure: as §1

E2F pathway = test: Real-time quantitative PCR of E2F pathway markers in cardiac tissue, Ang II preventive model; conditions: Ang II mice; #p<0.05 versus Ang II group
[3] = system: Ang II-induced cardiac inflammation and fibrosis; test: Immunohistochemistry of inflammatory and fibrotic markers (F4/80, TNC) in left ventricle, Ang II preventive model; conditions: 20 mg/kg oral, compared with Ang II untreated mice
Procedure: Macrophages accumulation are the hallmark of Ang II-induced fibrosis and play important roles during the inflammatory phase. Macrophage accumulation was identified by staining with a mAb that identifies F4/80^+ cells (FIG. 3). TNC is an ECM molecule that is expressed in response to injury in various tissues. Although not detectable in the normal adult heart, it was expressed under pathological conditions (FIG. 4).
Heart sections (Left ventricle) ([…]) were deparaffinized and boiled for 10 minutes in sodium citrate buffer (10 mM, pH 6.0) (Sigma-Aldrich, Madrid, Spain) for antigen retrieval. The sections were then incubated in a PBS washing buffer containing 0.1% Tween (Sigma-Aldrich, Madrid, Spain) three times for 10 minutes. The sections were incubated overnight at 4° C. with the following antibodies; for immunohistochemical detection of macrophages F4/80 antibody (1:50; MCA497, Bio-Rad) or with monoclonal anti-TNC (1:100 dilution, #MAB2138, RD system, Mineapolis, Minn., USA) were used for detection of this ECM protein. Slides were developed with diaminobenzidine chromogen (Agilent, Santa Clara, Calif., USA) and counterstained in Harris hematoxylin (Sigma-Aldrich, Madrid, Spain). Slides were photographed, digitalized using a Leica DFC420c camera and analyzed using Image J software.

[4] = Weight and behaviour observation during the preventive Ang II protocol; conditions: 20 mg/kg daily oral gavage
Procedure: Ang II causes myocardial fibrosis in a short period of time (Sopel M et al., 2011, Lab. Invest., 91:565-578) characterized by collagen accumulation and after 14 days of Ang II infusion (Sigusch H H et al., 1996, Cardiovascular Research, 31:546-554). […] Subcutaneous infusion of Ang II using ALZET® osmotic pumps was used to study compound preventive effects. ALZET® osmotic minipumps (Model #2004, Charles Rives, Barcelona, Spain) delivering of Ang II (1.0 mg kg^− min^−) (Sigma-Aldrich, Madrid, Spain) for two weeks. Compound treatment was daily administered in parallel, one day before of the implantation of the subcutaneous pump, beneath the mid scapular loose skin and consisted of daily oral gavage of compound (20 mg/kg) or vehicle (Corn Oil/Maisine CC, 1/1). Mice were acclimated to manipulators for a week previously to the experiments in order to reduce stress and allow the detection of subtle changes in behavior by researchers. […] Neither piloerection nor hunched appearances were appreciated during the experimental procedures. Mice were sacrificed by cervical dislocation and the heart, aorta, skin, and kidney were removed and processed for histological examination or were frozen for further analysis.

[5] = system: Ang II-induced cardiac fibrosis; test: Ang II therapeutic model: perivascular myocardial collagen deposition; conditions: Ang II 500 ng kg^- min^- 28 days, 20 mg/kg oral during last 14 days, ##p<0.01 versus Ang II group
Procedure: as §1

[6] = system: Ang II-induced dermal fibrosis; test: Ang II-induced dermal fibrosis, preventive model, Sirius Red; conditions: Ang II 1.0 mg kg^- min^- two weeks, 20 mg/kg oral gavage
Procedure: The local renin angiotensin system exists in almost all organs, including skin. Ang II induces fibrosis in the skin via accumulation of activated fibroblasts. Dermal fibrosis was induced in mice by infusion of Ang II (1.0 mg kg^− min^−) for two weeks. The treatment with the compound of Formula (VIII) by oral gavage was the same as describe in Example 2. After two weeks of treatment, the mice were sacrificed under ether anesthesia. Skin samples were collected and fixed in 4% paraformaldehyde and embedded in paraffin. Skin sections (5 μm) were stained with Sirius Red for evaluation of fibrosis. Subcutaneous Ang II infusion induced a significant increase of collagen content and in the mice treated with compound, the induction of fibrosis in the skin is prevented (FIG. 11).

With `C=C(C)C1CCC(C)=C[C@H]1C1=C(O)C(=O)C(CCCCC)=C(NCc2ccccc2)C1=O` (stereo partly drawn) [Formula (VIII)] the behavioral changes [1] was “No behavioral changes”, the mice weight ([1]; between experimental groups) was “no significant changes” and the “aorta collagen content in adventitial layer” value [2] was “antifibrotic activity”. The “CDK1 gene expression in cardiac tissue” value (E2F pathway) was “down regulated”, the “MKi67 gene expression in cardiac tissue” value (E2F pathway) was “down regulated” and the “TOP2A gene expression in cardiac tissue” value (E2F pathway) was “down regulated”. The “TNC marker in left ventricle (immunostaining)” value [3] was “significantly reduced”, the “infiltration of F4/80+ macrophages in myocardial tissue” value [3] was “significantly reduced” and the behavioral changes [4] was “No behavioral changes”. The mice weight ([4]; between experimental groups) was “no significant changes”, the “Ang II perivascular myocardial collagen deposition” value [5] was “reduced” and the “induction of fibrosis in the skin (collagen content)” value [6] was “prevented”.
